According to ChEMBL document CHEMBL1201862, “PubChem BioAssay data set” (2004):
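Tested at 5 concentrations; 48 h exposure; 96-well plates; endpoints linearly interpolated, else capped at highest concentration. At the GI50, growth is halved.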 Activity calls are given as the source filed them. Rule as the data show it: active = GI50 up to about 1.1 µM and inactive = higher. Peptide text beside a SMILES is read from it. * marks the point of attachment. Boc = CC(C)(C)OC(=O)*; OBn = c1ccc(CO*)cc1; Bn = c1ccc(C*)cc1

Assays:
Test in all cases: NCI anticancer screen, dose series, 48 h
786-0 = test system: 786-0
A498 = test system: A498
A549 = test system: A549
ACHN = test system: ACHN
BT-549 = test system: BT-549
COLO 205 = test system: COLO 205
EKVX = test system: EKVX
HCC 2998 = test system: HCC 2998
HCT-116 = test system: HCT-116
HCT-15 = test system: HCT-15
HL-60 = test system: HL-60
HOP-62 = test system: HOP-62
HOP-92 = test system: HOP-92
HT-29 = test system: HT-29
Hs-578T = test system: Hs-578T
IGROV-1 = test system: IGROV-1
K562 = test system: K562
KM12 = test system: KM12
M14 = test system: M14
MCF7 = test system: MCF7
MDA-MB-231 = test system: MDA-MB-231
MDA-N = test system: MDA-N
MOLT-4 = test system: MOLT-4
Malme-3M = test system: Malme-3M
NCI-H226 = test system: NCI-H226
NCI-H23 = test system: NCI-H23
NCI-H460 = test system: NCI-H460
OVCAR-5 = test system: OVCAR-5
OVCAR-8 = test system: OVCAR-8
PC-3 = test system: PC-3
RPMI-8226 = test system: RPMI-8226
RXF 393 = test system: RXF 393
SK-MEL-28 = test system: SK-MEL-28
SK-MEL-2 = test system: SK-MEL-2
SK-MEL-5 = test system: SK-MEL-5
SN12C = test system: SN12C
SNB-19 = test system: SNB-19
SNB-75 = test system: SNB-75
SR = test system: SR
SW-620 = test system: SW-620
TK-10 = test system: TK-10
U-251 = test system: U-251
UACC-257 = test system: UACC-257
UACC-62 = test system: UACC-62
UO-31 = test system: UO-31
CAKI-1 = test system: CAKI-1
CCRF-CEM = test system: CCRF-CEM
DU-145 = test system: DU-145
LOX IMVI = test system: LOX IMVI
MDA-MB-435 = test system: MDA-MB-435
NCI/ADR-RES = test system: NCI/ADR-RES
OVCAR-3 = test system: OVCAR-3
OVCAR-4 = test system: OVCAR-4
SF-268 = test system: SF-268
SF-295 = test system: SF-295
SF-539 = test system: SF-539
SK-OV-3 = test system: SK-OV-3

CC(C)CC(NC(=O)C(CCC(=O)OCc1ccccc1)NC(=O)OC(C)(C)C)C(=O)NC(COCc1ccccc1)C(=O)NC(Cc1ccccc1)C(=O)O (stereo not given) (Boc-E(OBn)LS(Bn)F-OH; configuration not given here)
GI50 (786-0): > 100 µM (inactive)
GI50 (A498): > 100 µM (inactive)
GI50 (A549): > 100 µM (inactive)
GI50 (ACHN): > 100 µM (inactive)
GI50 (BT-549): > 100 µM (inactive)
GI50 (COLO 205): > 100 µM (inactive)
GI50 (EKVX): > 100 µM (inactive)
GI50 (HCC 2998): > 100 µM (inactive)
GI50 (HCT-116): > 100 µM (inactive)
GI50 (HCT-15): > 100 µM
GI50 (HL-60): > 100 µM (inactive)
GI50 (HOP-62): > 100 µM (inactive)
GI50 (HOP-92): > 100 µM (inactive)
GI50 (HT-29): > 100 µM (inactive)
GI50 (Hs-578T): > 100 µM (inactive)
GI50 (IGROV-1): > 100 µM (inactive)
GI50 (K562): > 100 µM (inactive)
GI50 (KM12): > 100 µM (inactive)
GI50 (M14): > 100 µM (inactive)
GI50 (MCF7): > 100 µM (inactive)
GI50 (MDA-MB-231): > 100 µM (inactive)
GI50 (MDA-N): > 100 µM (inactive)
GI50 (MOLT-4): > 100 µM (inactive)
GI50 (Malme-3M): 46.9 µM (inactive)
GI50 (NCI-H226): > 100 µM (inactive)
GI50 (NCI-H23): > 100 µM (inactive)
GI50 (NCI-H460): > 100 µM (inactive)
GI50 (OVCAR-5): > 100 µM (inactive)
GI50 (OVCAR-8): > 100 µM (inactive)
GI50 (PC-3): > 100 µM (inactive)
GI50 (RPMI-8226): > 100 µM (inactive)
GI50 (RXF 393): > 100 µM (inactive)
GI50 (SK-MEL-28): > 100 µM (inactive)
GI50 (SK-MEL-2): > 100 µM (inactive)
GI50 (SK-MEL-5): > 100 µM (inactive)
GI50 (SN12C): > 100 µM (inactive)
GI50 (SNB-19): > 100 µM (inactive)
GI50 (SNB-75): 96.8 µM (inactive)
GI50 (SR): > 100 µM (inactive)
GI50 (SW-620): > 100 µM (inactive)
GI50 (TK-10): > 100 µM (inactive)
GI50 (U-251): > 100 µM (inactive)
GI50 (UACC-257): > 100 µM (inactive)
GI50 (UACC-62): > 100 µM (inactive)
GI50 (UO-31): > 100 µM (inactive)

Clc1ccc(/C=c2\nc(-c3ccccc3)n3c2nc2ccccc23)cc1
GI50 (786-0): 56.8 µM (inactive)
GI50 (A498): > 100 µM (inactive)
GI50 (A549): > 100 µM (inactive)
GI50 (ACHN): 21.9 µM (inactive)
GI50 (BT-549): 63.2 µM (inactive)
GI50 (CAKI-1): 51.4 µM (inactive)
GI50 (CCRF-CEM): > 100 µM (inactive)
GI50 (COLO 205): > 100 µM (inactive)
GI50 (DU-145): > 100 µM (inactive)
GI50 (EKVX): 19.7 µM (inactive)
GI50 (HCT-116): > 100 µM (inactive)
GI50 (HCT-15): > 100 µM
GI50 (HL-60): > 100 µM (inactive)
GI50 (HOP-62): 38.4 µM (inactive)
GI50 (HOP-92): > 100 µM (inactive)
GI50 (HT-29): > 100 µM (inactive)
GI50 (Hs-578T): 49.3 µM (inactive)
GI50 (IGROV-1): > 100 µM (inactive)
GI50 (K562): > 100 µM (inactive)
GI50 (KM12): > 100 µM (inactive)
GI50 (LOX IMVI): > 100 µM (inactive)
GI50 (M14): > 100 µM (inactive)
GI50 (MCF7): > 100 µM (inactive)
GI50 (MDA-MB-231): 61.5 µM (inactive)
GI50 (MDA-MB-435): > 100 µM (inactive)
GI50 (MOLT-4): > 100 µM (inactive)
GI50 (Malme-3M): > 100 µM (inactive)
GI50 (NCI-H226): > 100 µM (inactive)
GI50 (NCI-H23): > 100 µM (inactive)
GI50 (NCI-H460): > 100 µM (inactive)
GI50 (NCI/ADR-RES): 28.2 µM (inactive)
GI50 (OVCAR-3): 51.9 µM (inactive)
GI50 (OVCAR-4): 56.4 µM (inactive)
GI50 (OVCAR-5): > 100 µM (inactive)
GI50 (OVCAR-8): 32.7 µM (inactive)
GI50 (PC-3): 19.1 µM (inactive)
GI50 (RPMI-8226): > 100 µM (inactive)
GI50 (RXF 393): 28.7 µM (inactive)
GI50 (SF-268): 34.4 µM (inactive)
GI50 (SF-295): 25.5 µM (inactive)
GI50 (SF-539): 22.4 µM (inactive)
GI50 (SK-MEL-28): 0.0465 µM (active)
GI50 (SK-MEL-2): > 100 µM (inactive)
GI50 (SK-MEL-5): > 100 µM (inactive)
GI50 (SK-OV-3): 43.3 µM (inactive)
GI50 (SN12C): > 100 µM (inactive)
GI50 (SNB-19): > 100 µM (inactive)
GI50 (SR): > 100 µM (inactive)
GI50 (SW-620): > 100 µM (inactive)
GI50 (TK-10): > 100 µM (inactive)
GI50 (U-251): 49.1 µM (inactive)
GI50 (UACC-257): > 100 µM (inactive)
GI50 (UACC-62): > 100 µM (inactive)
GI50 (UO-31): > 100 µM (inactive)

CC(=O)OCC1OC(n2c(-c3ccccc3)cc(-c3ccccc3)c(C#N)c2=O)C(OC(C)=O)C(OC(C)=O)C1OC(C)=O (stereo not given)
GI50 (RXF 393): 56 µM (inactive)
